{
  "source": "patent US8569241B2",
  "about": "“Composition for improving brain function and method for improving brain function” (Calpis Co., Ltd., priority 2009, dated 2013)",
  "assay_type_in_all_cases": "in vivo",
  "key": {"[1]": {"test_system": "scopolamine-induced amnesia", "test": "Y-shaped maze test, spontaneous alternation behavior, scopolamine-induced amnesia", "conditions": "once orally 60 min before test, scopolamine 1 mg/kg s.c., ddY mice"}, "[2]": {"test_system": "scopolamine-induced amnesia", "test": "Y-shaped maze test, spontaneous alternation behavior, scopolamine-induced amnesia", "conditions": "once orally 60 min before test, ddY mice", "method": "Male mice (n=15 to 75) of the ddY strain (approximately 7-week old) were used, and they received food and water ad lib. Test substances used were 0.05 nmol/kg weight (0.1 μg/kg weight), 0.5 nmol/kg weight (1 μg/kg weight), 1.5 nmol/kg weight (3 μg/kg weight), 5 nmol/kg weight (10 μg/kg weight), 50 nmol/kg weight (100 μg/kg weight), and 500 nmol/kg weight (1000 μg/kg weight) of Asn-Ile-Pro-Pro-Leu-Thr-Gln-Thr-Pro-Val-Val-Val-Pro-Pro-Phe-Leu-Gln-Pro-Glu. The test substances were administered to the mice once orally 60 minutes before the execution of a Y-shaped maze test for evaluation of spontaneous alternation behavior. Further, 30 minutes before the execution of the Y-shaped maze test, 1 mg/kg weight of scopolamine was subcutaneously administered on the backs of the mice in order to induce brain dysfunction (dysmnesia and/or cognitive impairment) in the mice. In the Y-shaped maze test, a Y-shaped maze was used as an experimental device, in which the length of each arm was 40 cm, the height of the wall was 12 cm, the width of the floor was 3 cm, and the width of the upper part was 10 cm, and three arms were connected to each other at an angle of 120 degrees. Each of the mice was placed at the tip of any one of the arms of the Y-shaped maze, and then let go to freely explore in the maze for 8 minutes. The sequence of the arms each of the mice entered was recorded. The number of entries by each of the mice for each of the arms during the measurement time was counted to be the total number of entries. In the sequence, the combination in which three different arms were selected in succession (for example, with the three arms respectively called A, B, and C, if the sequence of the arms entered is ABCBACACB, the count is 4 inclusive of overlapping) was investigated, and the number of the count was used as the number of spontaneous alternation behavior. The percentage of spontaneous alternation behavior was calculated by dividing the number of spontaneous alternation behavior by a number obtained by subtracting 2 from the total number of entries, and multiplying a resultant number by 100. The percentage of spontaneous alternation behavior was used as an indicator. […] The measured values were expressed in the form of mean±standard error for each group. A significant difference between the control group and the scopolamine control group was calculated using Student's t-test. Further, a significant difference between the scopolamine control group and the NIPPLTQTPVVVPPFLQPE-administered groups was calculated using Dunnett's multiple comparison test after one-way analysis of variance.\nMale mice (n=15 to 45) of the ddY strain (approximately 7-week old) were used, and they received food and water ad Iib. Test substances used were: 50 nmol/kg weight (100 μg/kg weight) of Asn-Ile-Pro-Pro-Leu-Thr-Gln-Thr-Pro-Val-Val-Val-Pro-Pro-Phe-Leu-Gln-Pro-Glu; 50 nmol/kg weight (120 μg/kg weight) of […]([…]); 50 nmol/kg weight (100 μg/kg weight) of Ile-Pro-Pro-Leu-Thr-Gln-Thr-Pro-Val-Val-Val-Pro-Pro-Phe-Leu-Gln-Pro-Glu (IPPLTQTPVVVPPFLQPE); 50 nmol/kg weight (100 μg/kg weight) of Asn-Ile-Pro-Pro-Leu-Thr-Gln-Thr-Pro-Val-Val-Val-Pro-Pro-Phe-Leu-Gln-Pro (NIPPLTQTPVVVPPFLQP) (SEQ ID NO: 18); and 50 nmol/kg weight (50 μg/kg weight) of Thr-Gln-Thr-Pro-Val-Val-Val-Pro-Pro-Phe (TQTPVVVPPF) (SEQ ID NO: 19). The test substances were administered to the mice once orally 60 minutes before the execution of a Y-shaped maze test for evaluation of spontaneous alternation behavior. Further, 30 minutes before the execution of the Y-shaped maze test, 1 mg/kg weight of scopolamine was subcutaneously administered on the backs of the mice in order to induce brain dysfunction (dysmnesia and/or cognitive impairment) in the mice. […]"}, "memory maintenance": {"test_system": "memory maintenance", "test": "novel object recognition test for evaluation of memory maintenance", "conditions": "Example 4, FIG. 4; 500 nmol/kg weight (1000 μg/kg weight), once orally 60 min before training trial; retention trial 48 hours later; ddY mice", "method": "Male mice (n=14 to 15) of the ddY strain (approximately 7-week old) were used, and they received food and water ad lib. A test substance used was 500 nmol/kg weight (1000 μg/kg weight) of Asn-Ile-Pro-Pro-Leu-Thr-Gln-Thr-Pro-Val-Val-Val-Pro-Pro-Phe-Leu-Gln-Pro-Glu. The test substance was administered to the mice once orally 60 minutes before the execution of a novel object recognition test for evaluation of memory maintenance. In the novel object recognition test, a 30 cm x30 cm x30 cm box was used as an experimental device. For acclimation, each of the mice was placed in the experimental device with floor bedding for 5 minutes, and then allo the aminals to go around freely in the device. On the next day of the acclimation treatment, a training trial was performed. In the training trial, two among three kinds of objects were selected and disposed in the experimental device (the objects were arranged along the central line of the floor at positions 8 cm away from the walls on two sides, and the positions were designated as X1 and X2). […] In the training trial and the retention trial, the time (seconds) the mice spent exploring each object by approaching within 1 cm therefrom was measured (except the time when the mice were riding on the object). For each of the training trial and the retention trial, an exploration time ratio between the two objects was calculated. […]"}, "[3]": {"conditions": "Example 6, FIG. 6, 500 nmol/kg weight, Student's t-test"}, "[4]": {"conditions": "Example 2, FIG. 2, 50 nmol/kg weight, scopolamine 1 mg/kg s.c., Dunnett's test vs scopolamine control"}, "[5]": {"conditions": "Example 3, FIG. 3, 500 nmol/kg weight (1000 μg/kg weight), Dunnett's test"}},
  "data": [
    {"sequence": "PLTQTPVVVPPFLQPE (Synthetic functional peptide) [Pro-Leu-Thr-Gln-Thr-Pro-Val-Val-Val-Pro-Pro-Phe-Leu-Gln-Pro-Glu]", "values": [
      {"measurement": "prophylactic activity against amnesia (percentage of spontaneous alternation behavior)", "setting": "[1]; [3]", "result": "had a prophylactic activity against amnesia"}
    ]},
    {"sequence": "LTQTPVVVPPFLQPE (Synthetic functional peptide) [Leu-Thr-Gln-Thr-Pro-Val-Val-Val-Pro-Pro-Phe-Leu-Gln-Pro-Glu]", "values": [
      {"measurement": "prophylactic activity against amnesia (percentage of spontaneous alternation behavior)", "setting": "[1]; [3]", "result": "had a prophylactic activity against amnesia"}
    ]},
    {"sequence": "NIPPLTQTPVVVPPFLQP (Synthetic comparative example) [Asn-Ile-Pro-Pro-Leu-Thr-Gln-Thr-Pro-Val-Val-Val-Pro-Pro-Phe-Leu-Gln-Pro]", "values": [
      {"measurement": "prophylactic activity against amnesia (percentage of spontaneous alternation behavior)", "setting": "[2]; [4]", "result": "did not show any prophylactic activity against amnesia"}
    ]},
    {"sequence": "TQTPVVVPPF (Synthetic comparative example) [Thr-Gln-Thr-Pro-Val-Val-Val-Pro-Pro-Phe]", "values": [
      {"measurement": "prophylactic activity against amnesia (percentage of spontaneous alternation behavior)", "setting": "[2]; [4]", "result": "did not show any prophylactic activity against amnesia"}
    ]},
    {"sequence": "PVVVPPFLQPE (Synthetic functional peptide) [Pro-Val-Val-Val-Pro-Pro-Phe-Leu-Gln-Pro-Glu]", "values": [
      {"measurement": "prophylactic activity against amnesia (percentage of spontaneous alternation behavior)", "setting": "[1]; [3]", "result": "had a prophylactic activity against amnesia"}
    ]},
    {"sequence": "TQTPVVVPPFLQPE (Synthetic functional peptide) [Thr-Gln-Thr-Pro-Val-Val-Val-Pro-Pro-Phe-Leu-Gln-Pro-Glu]", "values": [
      {"measurement": "prophylactic activity against amnesia (percentage of spontaneous alternation behavior)", "setting": "[1]; Example 5, FIG. 5, 50 nmol/kg weight (80 μg/kg weight), Student's t-test", "result": "had a prophylactic activity against amnesia"}
    ]},
    {"sequence": "PPLTQTPVVVPPFLQPE (Synthetic functional peptide) [Pro-Pro-Leu-Thr-Gln-Thr-Pro-Val-Val-Val-Pro-Pro-Phe-Leu-Gln-Pro-Glu]", "values": [
      {"measurement": "prophylactic activity against amnesia (percentage of spontaneous alternation behavior)", "setting": "[1]; [5]", "result": "had a prophylactic activity against amnesia"}
    ]},
    {"sequence": "NIPPLTQTPVVVPPFLQPE (Synthetic functional peptide) [Asn-Ile-Pro-Pro-Leu-Thr-Gln-Thr-Pro-Val-Val-Val-Pro-Pro-Phe-Leu-Gln-Pro-Glu]", "values": [
      {"measurement": "prophylactic activity against amnesia (percentage of spontaneous alternation behavior)", "setting": "[1]; [5]", "result": "had a prophylactic activity against amnesia"},
      {"measurement": "memory strengthening activity (exploration time ratio of novel object)", "setting": "memory maintenance", "result": "had a memory strengthening activity"},
      {"measurement": "prophylactic activity against amnesia (percentage of spontaneous alternation behavior)", "setting": "[2]; Example 1, FIG. 1, 0.05 nmol/kg weight to 500 nmol/kg weight (0.1 to 1000 μg/kg weight), scopolamine 1 mg/kg s.c. 30 min before, Dunnett's test", "result": "had a prophylactic activity against amnesia"},
      {"measurement": "prophylactic activity against amnesia (percentage of spontaneous alternation behavior)", "setting": "[2]; [4]", "result": "had a prophylactic activity against amnesia"}
    ]},
    {"sequence": "IPPLTQTPVVVPPFLQPE (Synthetic functional peptide) [Ile-Pro-Pro-Leu-Thr-Gln-Thr-Pro-Val-Val-Val-Pro-Pro-Phe-Leu-Gln-Pro-Glu]", "values": [
      {"measurement": "prophylactic activity against amnesia (percentage of spontaneous alternation behavior)", "setting": "[2]; [4]", "result": "had a prophylactic activity against amnesia"}
    ]},
    {"sequence": "NIPPLTQTPVVVPPFLQPEVM (Synthetic functional peptide)", "values": [
      {"measurement": "prophylactic activity against amnesia (percentage of spontaneous alternation behavior)", "setting": "[2]; [4]", "result": "had a prophylactic activity against amnesia"}
    ]},
    {"sequence": "VVVPPFLQPE (Synthetic functional peptide) [Val-Val-Val-Pro-Pro-Phe-Leu-Gln-Pro-Glu]", "values": [
      {"measurement": "prophylactic activity against amnesia (percentage of spontaneous alternation behavior)", "setting": "[1]; [3]", "result": "had a prophylactic activity against amnesia"}
    ]}
  ]
}
